Test results published in patent US20110150817A1, “FRESHENING COMPOSITIONS COMPRISING MALODOR BINDING POLYMERS AND MALODOR CONTROL COMPONENTS” (priority 2009, published 2011).
Where two headings read alike, the source gives them in different places.

Tests used:
[1] = Effect of volatile aldehydes on amine-based malodor (headspace GC/MS); settings: 1 μL aldehyde in 10 mL headspace vial
Procedure: A 1 μL sample of each volatile aldehyde listed in Table 6 and each Accord (A, B, and C) listed in Tables 1 to 3 is pipeted into individual 10 mL silanized headspace vials. […] Repeat 4 times for each sample (2 for butylamine analysis and 2 for butanethiol analysis).
For amine analysis, the samples are injected immediately into the system after the malodor is introduced.

[2] = Effect of volatile aldehydes on sulfur-based malodor (headspace GC/MS); settings: 30 minutes at room temperature, 1 μL aldehyde in 10 mL headspace vial
Procedure: A 1 μL sample of each volatile aldehyde listed in Table 6 and each Accord (A, B, and C) listed in Tables 1 to 3 is pipeted into individual 10 mL silanized headspace vials. […] Repeat 4 times for each sample (2 for butylamine analysis and 2 for butanethiol analysis). […]

[3] = acid catalysts, as reported by Scifinder; cited from earlier work
Vapor pressure at 25° C. = type: physicochemical
Procedure: Suitable acid catalysts have a VP, as reported by Scifinder, in the range of about 0.001 torr to about 38 torr, measured at 25° C., alternatively about 0.001 torr to about 14 torr, alternatively from about 0.001 to about 1, alternatively from about 0.001 to about 0.020, alternatively about 0.005 to about 0.020, alternatively about 0.010 to about 0.020.

| Compound | At least 20% butylamine reduction at 40 seconds? [1] | At least 20% butanethiol reduction at 30 minutes? [2] | VP (torr) @25° C. [3] [torr] | VP (torr) @25° C. (Vapor pressure at 25° C.; Table 2, materials of Accord B) [torr] | VP (torr) @25° C. (Vapor pressure at 25° C.; Table 3, materials of Accord C) [torr] | VP (torr) @25° C. (Vapor pressure at 25° C.; Table 1, materials of Accord A) [torr] |
| --- | --- | --- | --- | --- | --- | --- |
| 3,4-Trimethoxy-benzylaldehyde | No | No | – | – | – | – |
| COc1cc(OC)c(OC)cc1C=O [2,4,5 Trimethoxy Benzaldehyde] | No | No | – | – | – | – |
| COc1cc(OC)c(C=O)c(OC)c1 [2,4,6-Trimethoxy-benzylaldehyde] | No | No | – | – | – | – |
| CCOc1ccccc1C=O [2-ethoxy benzylaldehyde] | Yes | Yes | – | – | – | – |
| CC(C)CC=C(C=O)C(C)C [2-isopropyl-5-methyl-2-hexenal] | Yes | Yes | – | – | – | – |
| CC(C=O)=Cc1ccco1 [2-methyl-3-(2-furyl)-propenal] | No | No | – | – | – | – |
| COc1cc(C=O)cc(OC)c1OC [3,4,5 Trimethoxy Benzaldehyde] | No | No | – | – | – | – |
| CC(C)(C)c1ccc(C=O)cc1 [4-tertbutyl benzylaldehyde] | Yes | No | – | – | – | – |
| Cc1ccc(C(=O)O)s1 [5-Methyl thiophene carboxylic acid] | – | – | 0.019 | – | – | – |
| Cc1ccc(C=O)o1 [5-methyl furfural] | Yes | Yes | – | – | – | – |
| Cc1ccc(C=O)s1 [5-methyl-thiophene-carboxaldehyde] | No | Yes | – | – | – | – |
| CC(=O)O [Acetic Acid] | – | – | 13.9 | – | – | – |
| CC(C)=CCCC(C)CCCC(C)C=O (centres unmarked) [Adoxal, 2,6,10-Trimethyl-9-undecenal] | Yes | No | – | 0.007 | 0.007 | – |
| CCCCCC(C=O)=Cc1ccccc1 [Amyl cinnamic aldehyde, alpha-Amylcinnamic aldehyde] | No | No | – | – | – | – |
| O=C(O)c1ccccc1 [Benzoic acid] | – | – | 0.014 | – | – | – |
| O=Cc1ccccc1 [Benzylaldehyde] | Yes | No | – | – | – | – |
| CC(C)(C)c1ccc(CCC=O)cc1 [Bourgeonal, 4-t-butylbenzenepropionaldehyde] | No | Yes | – | – | 0.004 | – |
| CCCCCCCC(=O)O [Caprylic acid] | – | – | 0.0222 | – | – | – |
| O=CC=Cc1ccccc1 [Cinnamic aldehyde, 3-phenyl-2-propenal] | Yes | Yes | – | – | – | – |
| CC(C)=CCCC(C)CCOCC=O (centres unmarked) [Citronelyl Oxyacetaldehyde, Citronellyl oxyacetaldehyde] | No | No | – | – | – | – |
| CC(C=O)Cc1ccc(C(C)C)cc1 (stereo not drawn) [Cymal, Alpha-methyl-p-isopropyl phenyl propyl aldehyde] | Yes | No | – | 0.007 | 0.007 | 0.007 |
| CCCCCCCCCC=O [Decyl aldehyde] | Yes | No | – | – | – | – |
| CC(=O)OC1CC2CC1C1CC=CC21 (centres unmarked) [Flor Acetate] | – | – | – | – | 0.060 | – |
| C=CC(C)CCC=C(C)CCC=O (centres unmarked) [Floral Super] | Yes | Yes | – | 0.030 | 0.030 | 0.030 |
| CCc1ccc(CC(C)(C)C=O)cc1 [Floralozone, para-ethyl-alpha,alpha-dimethyl Hydrocinnamaldehyde] | No | No | – | 0.005 | 0.005 | – |
| CC(C)c1cccc(C(C)CC=O)c1 (centres unmarked) [Florhydral, 3-(3-Isopropyl-phenyl)-butyraldehyde] | Yes | Yes | – | 0.008 | 0.008 | 0.008 |

| Compound | At least 20% butylamine reduction at 40 seconds? [1] | At least 20% butanethiol reduction at 30 minutes? [2] | VP (torr) @25° C. [3] [torr] | VP (torr) @25° C. (Vapor pressure at 25° C.; Table 2, materials of Accord B) [torr] | VP (torr) @25° C. (Vapor pressure at 25° C.; Table 3, materials of Accord C) [torr] | VP (torr) @25° C. (Vapor pressure at 25° C.; Table 1, materials of Accord A) [torr] |
| --- | --- | --- | --- | --- | --- | --- |
| O=CO [Formic Acid] | – | – | 36.5 | – | – | – |
| CCC(=O)OC1CC2CC1C1CC=CC21 (centres unmarked) [Frutene] | – | – | – | – | 0.020 | – |
| CC(C=O)Cc1ccc2c(c1)OCO2 (stereo not drawn) [Helional, alpha-methyl-3,4-(methylenedioxy)-hydrocinnamaldehyde] | Yes | No | – | – | 0.0005 | – |
| CC(CC=O)CCCC(C)(C)O (centres unmarked) [Hydroxycitronellal, 7-hydroxy-3,7-dimethyl octan-1-al] | No | No | – | – | – | – |
| C=CCCCCCCCCC=O [Intreleven Aldehyde, undec-10-en-1-al] | – | – | – | 0.060 | 0.060 | 0.060 |
| CCCCCCCCCCCC=O [Lauric aldehyde] | Yes | No | – | – | – | – |
| CC1=CC(C)C(C=O)CC1 (centres unmarked) [Ligustral, 2,4-dimethyl-3-cyclohexene-1-carboxaldehyde] | Yes | No | – | – | – | – |
| C=CC(C)(O)CCC=C(C)C (centres unmarked) [Linalool] | – | – | – | – | 0.050 | – |
| CC(C)(O)CCCC1=CCC(C=O)CC1 (centres unmarked) [Lyral, 4-(4-hydroxy-4-methylpentyl)-3-cyclohexene-1-carboxaldehyde] | Yes | No | – | – | – | – |
| CC(C)=CCCC(C)C=O (centres unmarked) [Melonal, 2,6-Dimethyl-5-Heptenal] | Yes | No | – | 0.670 | 0.670 | – |
| Cc1cc(C)cc(C(=O)O)c1 [Mesitylenic acid] | – | – | 0.00211 | – | – | – |
| CCCCCCCCCC(C)C=O (centres unmarked) [Methyl Nonyl Acetaldehyde, 2-methyl-1-undecanal] | No | No | – | 0.030 | 0.030 | – |
| CC(C=O)Cc1ccc(C(C)(C)C)cc1 (stereo not drawn) [P.T. Bucinal, 4-tert-butyl-alpha-methyl-hydrocinnamaldehyde] | Yes | No | – | – | – | – |
| Oc1ccccc1 [Phenol] | – | – | 0.610 | – | – | – |
| CC1(C)C2CC=C(CCC=O)C1C2 (centres unmarked) [Pino acetaldehyde] | Yes | Yes | – | – | – | – |
| COC1CC2CC1C1CC(C=O)CC21 (centres unmarked) [Scentenal, octahydro-5-methoxy-4,7-Methano-1H-indene-2-carboxaldehyde] | – | – | – | 0.010 | 0.010 | 0.010 |
| O=C(O)CCC(=O)O [Succinic acid] | – | – | 0.0165 | – | – | – |
| O=Cc1cccs1 [Thiophene Carboxaldehyde] | Yes | No | – | – | – | – |
| C/C=C(\C)C(=O)O [Tiglic acid] | – | – | 0.152 | – | – | – |
| CCCC/C=C/C=C/C=O [Trans Trans 2,4-Nonadienal] | Yes | No | – | – | – | – |
| CCCCC/C=C/CCC=O [Trans-4-decenal] | Yes | Yes | – | – | – | – |
| CC(C)(C)C(=O)O [Trimethyl Acetic Acid] | – | – | 0.907 | – | – | – |
| CCCCCCCCCCC=O [Undecyl aldehyde] | Yes | No | – | – | – | – |
| COc1ccccc1C=O [o-anisaldehyde] | Yes | Yes | – | 0.032 | 0.320 | 0.032 |
| COc1ccc(C=O)cc1 [p-anisaldehyde, p-methoxybenzene aldehyde] | Yes | No | – | – | – | – |
